These results are taken from ChEMBL document CHEMBL2203000, “Discovery of AC710, a Globally Selective Inhibitor of Platelet-Derived Growth Factor Receptor-Family Kinases” (ACS Med Chem Lett, 2012).

For orientation: AUC means concentration integrated over time. High values mean more exposure, low ones less exposure. Usually IC50 stands for the concentration needed to halve the response being measured. A higher IC50 goes with a need for much substance. Usually Kd stands for a measure of binding affinity in units of concentration. A low value points to a tighter complex. A word on the bioavailability: it is dose-corrected exposure relative to a reference, in per cent. Low readings indicate poor availability, high ones good availability.

Each structure is given as a SMILES string.

Data set [1] deals with Rattus norvegicus. In words: Toxicity in rat assessed as mortality at 800 mg/kg administered for 7 days. Also on record: dose 800 mg/kg. The settings on record: in vivo, 168 h. Format: organism-based.
Data set [2] is described as follows: Antitumor activity against mouse M-NFS-60 cells xenografted in CD-1 nude mouse assessed as inhibition of tumor growth at 30 mg/kg, po measured after 4 of tumor implantation. Format: functional. The settings on record: read-out: TGI.
A short description of data set [3]: Antitumor activity against mouse M-NFS-60 cells xenografted in CD-1 nude mouse assessed as inhibition of tumor growth at 10 mg/kg, po measured after 4 of tumor implantation. Format: functional. The settings on record: read-out: TGI.
Data set [4] can be described thus: Antitumor activity against mouse M-NFS-60 cells xenografted in CD-1 nude mouse assessed as inhibition of tumor growth at 3 mg/kg, po measured after 4 of tumor implantation. Format: functional. The settings on record: read-out: TGI.
Data set [5] deals with Mus musculus. Nature of the data set: Toxicity in collagen-induced arthritis mouse assessed as body weight and body condition at 3 to 30 mg/kg for 15 days. Format: organism-based. The arrangement: dose 3-30 mg/kg. The settings on record: in vivo, 360 h.
For data set [6], the system named is Mus musculus. Nature of the data set: Toxicity in human MV4-11 cells xenografted in SCID mouse assessed as change in body weight at 0.3 to 30 mg/kg foe 2 weeks. Format: organism-based. The arrangement: dose 0.3-30 mg/kg. Conditions: in vivo, 336 h; call rule not given here. In general terms: In xenograft studies the graft and the host belong to different species.
For data set [7], the system named is Rattus norvegicus. In words: Toxicity in rat at 200 mg/kg administered for 7 days. Also on record: dose 200 mg/kg. The settings on record: in vivo, 168 h. Format: organism-based.
A short description of data set [8]: AUC in po dosed CD-1 mouse by LC-MS/MS analysis. Conditions: plasma. Format: ADME, organism-based.
The test system of data set [9] is Rattus norvegicus. In words: Toxicity in rat assessed as diarrhea at 800 mg/kg administered for 7 days. Conditions: in vivo, 168 h. Format: organism-based. Also on record: dose 800 mg/kg.
Data set [10] addresses T1, Cytochrome P450 2D6 (Homo sapiens, UniProt P10635). Nature of the data set: Induction of CYP2D6 at 3 to 30 uM. Format: ADME.
The target in data set [11] is Cytochrome P450 3A4 (Homo sapiens, UniProt P08684). Nature of the data set: Induction of CYP3A4 at 3 to 30 uM. Format: ADME.
The target of data set [12] is T2, Cytochrome P450 1A2 (Homo sapiens, UniProt P05177).
T2 sequence (P05177 whole entry): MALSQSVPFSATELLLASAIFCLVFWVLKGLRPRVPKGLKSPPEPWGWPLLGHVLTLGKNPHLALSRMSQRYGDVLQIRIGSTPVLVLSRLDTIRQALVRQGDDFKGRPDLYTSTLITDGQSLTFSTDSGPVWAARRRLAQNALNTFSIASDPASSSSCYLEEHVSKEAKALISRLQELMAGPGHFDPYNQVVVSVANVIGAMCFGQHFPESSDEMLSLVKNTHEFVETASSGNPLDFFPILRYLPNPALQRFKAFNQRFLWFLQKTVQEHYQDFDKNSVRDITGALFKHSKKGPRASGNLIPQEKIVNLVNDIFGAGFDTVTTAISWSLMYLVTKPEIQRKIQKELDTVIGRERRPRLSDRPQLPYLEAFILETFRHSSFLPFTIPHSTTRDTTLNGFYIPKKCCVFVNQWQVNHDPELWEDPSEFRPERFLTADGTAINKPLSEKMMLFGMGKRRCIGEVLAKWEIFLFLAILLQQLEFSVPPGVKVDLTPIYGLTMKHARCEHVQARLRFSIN
In words: Induction of CYP1A2 at 3 to 30 uM. Format: ADME.

Data set [13] addresses Cytochrome P450 2C19 (Homo sapiens, UniProt P33261). In words: Inhibition of CYP2C19. Format: ADME.
Data set [14] has as its target T1, Cytochrome P450 2D6. In words: Inhibition of CYP2D6. Format: ADME.
Data set [15] concerns the target T2, Cytochrome P450 1A2. In words: Inhibition of CYP1A2. Format: ADME.
The target of data set [16] is Cytochrome P450 2C9 (Homo sapiens, UniProt P11712). Nature of the data set: Inhibition of CYP2C9. Format: ADME.
For data set [17], the target named is T3, Platelet-derived growth factor receptor beta (Homo sapiens, UniProt P09619). In words: Binding affinity to PDGFRbeta expressed in HEK-293 cells. Format: cell-based, HEK293.
In data set [18] the target is T3, Platelet-derived growth factor receptor beta. Nature of the data set: Inhibition of PDGFRbeta phosphorylation in human MG63 cells. Format: cell-based, MG-63.
Data set [19] has as its target Platelet-derived growth factor receptor alpha (Homo sapiens, UniProt P16234). In words: Binding affinity to PDGFRalpha expressed in HEK-293 cells. Format: cell-based, HEK293.
The target of data set [20] is T4, Mast/stem cell growth factor receptor Kit (Homo sapiens, UniProt P10721). In words: Binding affinity to KIT expressed in HEK-293 cells. Format: cell-based, HEK293.
Data set [21] deals with T4, Mast/stem cell growth factor receptor Kit. Nature of the data set: Inhibition of KIT phosphorylation in human H526 cells. Format: cell-based.
Data set [22] concerns the target T5, Receptor-type tyrosine-protein kinase FLT3 (Homo sapiens, UniProt P36888).
T5 sequence (P36888 whole entry): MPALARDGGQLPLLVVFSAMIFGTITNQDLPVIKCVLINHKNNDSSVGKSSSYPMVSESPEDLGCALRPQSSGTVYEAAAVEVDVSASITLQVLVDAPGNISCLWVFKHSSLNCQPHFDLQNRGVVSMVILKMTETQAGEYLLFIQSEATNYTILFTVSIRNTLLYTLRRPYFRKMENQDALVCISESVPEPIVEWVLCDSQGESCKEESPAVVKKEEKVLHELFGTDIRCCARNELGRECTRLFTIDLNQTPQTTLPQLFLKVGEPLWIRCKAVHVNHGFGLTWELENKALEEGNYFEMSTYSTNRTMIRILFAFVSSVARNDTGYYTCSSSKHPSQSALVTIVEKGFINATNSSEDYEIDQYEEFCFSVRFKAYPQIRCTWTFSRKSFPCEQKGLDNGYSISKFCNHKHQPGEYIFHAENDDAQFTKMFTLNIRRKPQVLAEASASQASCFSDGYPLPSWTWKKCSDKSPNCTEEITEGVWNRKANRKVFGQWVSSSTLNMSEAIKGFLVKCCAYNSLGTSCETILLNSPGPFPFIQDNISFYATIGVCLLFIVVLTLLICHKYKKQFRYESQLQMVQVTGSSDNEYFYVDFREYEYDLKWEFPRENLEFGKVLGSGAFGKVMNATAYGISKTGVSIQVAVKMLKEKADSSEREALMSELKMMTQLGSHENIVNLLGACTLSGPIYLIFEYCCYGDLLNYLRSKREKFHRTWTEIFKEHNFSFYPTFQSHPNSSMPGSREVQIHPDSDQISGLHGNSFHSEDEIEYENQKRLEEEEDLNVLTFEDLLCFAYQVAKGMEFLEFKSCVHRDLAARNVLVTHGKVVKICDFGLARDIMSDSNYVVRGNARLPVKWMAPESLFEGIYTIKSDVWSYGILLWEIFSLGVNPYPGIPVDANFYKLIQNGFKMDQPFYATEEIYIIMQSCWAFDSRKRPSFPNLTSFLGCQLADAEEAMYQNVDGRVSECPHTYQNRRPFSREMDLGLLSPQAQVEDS
Nature of the data set: Inhibition of FLT3 phosphorylation in human MV4-11 cells. Format: cell-based.

The target of data set [23] is T6, Macrophage colony-stimulating factor 1 receptor (Homo sapiens, UniProt P07333). Nature of the data set: Inhibition of M-CSF-induced […] -fussed CSF1R phosphorylation expressed in HEK293 cells after 2 hrs by sandwich ELISA. Format: cell-based. A general note: In an ELISA, binding on a coated surface is turned into a signal by an enzyme label.
The nature of data set [24]: (§1) Oral bioavailability in Sprague-Dawley rat plasma at 10 mg/kg by LC-MS/MS analysis. Format: ADME, organism-based. Conditions: Sprague-Dawley, plasma.
A short description of data set [25]: (§2) AUC in Sprague-Dawley rat plasma at 10 mg/kg, po by LC-MS/MS analysis. Conditions: Sprague-Dawley, plasma. Format: ADME, organism-based. Also on record: dose 10 mg/kg, route oral.
A short description of data set [26]: Clearance in Sprague-Dawley rat plasma at 1 mg/kg, iv and 10 mg/kg, po by LC-MS/MS analysis. Format: ADME, organism-based.
In data set [27] the target is T6, Macrophage colony-stimulating factor 1 receptor. Nature of the data set: Binding affinity to CSF1R expressed in HEK-293 cells after 1 hr. Format: cell-based, HEK293.
In data set [28] the target is T5, Receptor-type tyrosine-protein kinase FLT3. In words: Binding affinity to FLT3 expressed in HEK-293 cells after 1 hr. Format: cell-based, HEK293.
The subject of data set [29] is Rattus norvegicus. Described as §1. Format: ADME, organism-based. The settings on record: in vivo.
Data set [30] deals with Rattus norvegicus. Described as §2. Format: ADME, organism-based. The arrangement: dose 10 mg/kg, route oral. The settings on record: in vivo.

T1 sequence (P10635 whole entry): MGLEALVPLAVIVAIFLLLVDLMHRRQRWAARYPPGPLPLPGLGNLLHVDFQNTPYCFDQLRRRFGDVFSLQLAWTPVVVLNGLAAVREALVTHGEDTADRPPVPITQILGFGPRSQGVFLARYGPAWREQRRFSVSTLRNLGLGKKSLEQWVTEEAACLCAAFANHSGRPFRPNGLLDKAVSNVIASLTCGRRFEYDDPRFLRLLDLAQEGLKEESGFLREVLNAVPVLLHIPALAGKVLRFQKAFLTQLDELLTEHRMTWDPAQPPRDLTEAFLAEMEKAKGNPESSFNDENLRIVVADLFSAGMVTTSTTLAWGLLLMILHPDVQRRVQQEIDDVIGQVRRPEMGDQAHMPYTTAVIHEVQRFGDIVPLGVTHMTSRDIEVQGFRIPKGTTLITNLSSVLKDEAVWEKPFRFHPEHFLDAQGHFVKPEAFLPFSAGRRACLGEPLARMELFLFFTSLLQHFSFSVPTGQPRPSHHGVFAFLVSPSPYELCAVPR
T4 sequence (P10721 whole entry): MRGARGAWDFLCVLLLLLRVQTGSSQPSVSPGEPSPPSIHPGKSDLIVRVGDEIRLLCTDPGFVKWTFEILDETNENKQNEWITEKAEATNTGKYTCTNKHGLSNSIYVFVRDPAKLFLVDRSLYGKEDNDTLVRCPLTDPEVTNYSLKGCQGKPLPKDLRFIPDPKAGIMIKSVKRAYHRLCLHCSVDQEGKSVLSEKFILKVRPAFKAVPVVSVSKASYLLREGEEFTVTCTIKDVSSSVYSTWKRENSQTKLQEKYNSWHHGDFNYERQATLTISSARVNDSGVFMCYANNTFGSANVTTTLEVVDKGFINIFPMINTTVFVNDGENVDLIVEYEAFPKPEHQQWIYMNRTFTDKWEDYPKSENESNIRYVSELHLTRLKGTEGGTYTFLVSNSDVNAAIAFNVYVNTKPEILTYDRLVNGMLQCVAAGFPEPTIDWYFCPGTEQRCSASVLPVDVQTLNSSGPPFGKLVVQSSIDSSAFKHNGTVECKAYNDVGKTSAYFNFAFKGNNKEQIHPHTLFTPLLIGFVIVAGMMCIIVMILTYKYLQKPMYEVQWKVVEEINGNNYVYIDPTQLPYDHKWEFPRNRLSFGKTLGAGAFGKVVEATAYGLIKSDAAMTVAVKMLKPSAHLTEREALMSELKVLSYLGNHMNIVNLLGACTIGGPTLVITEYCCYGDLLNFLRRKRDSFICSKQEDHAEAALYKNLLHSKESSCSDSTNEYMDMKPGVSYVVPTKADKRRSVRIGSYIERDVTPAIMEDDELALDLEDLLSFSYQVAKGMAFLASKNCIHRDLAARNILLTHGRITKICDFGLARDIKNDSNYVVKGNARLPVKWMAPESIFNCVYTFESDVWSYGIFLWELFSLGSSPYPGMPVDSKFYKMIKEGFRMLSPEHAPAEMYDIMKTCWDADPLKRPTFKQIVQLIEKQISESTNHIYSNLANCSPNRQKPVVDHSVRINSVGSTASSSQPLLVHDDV
T6 sequence (P07333 whole entry): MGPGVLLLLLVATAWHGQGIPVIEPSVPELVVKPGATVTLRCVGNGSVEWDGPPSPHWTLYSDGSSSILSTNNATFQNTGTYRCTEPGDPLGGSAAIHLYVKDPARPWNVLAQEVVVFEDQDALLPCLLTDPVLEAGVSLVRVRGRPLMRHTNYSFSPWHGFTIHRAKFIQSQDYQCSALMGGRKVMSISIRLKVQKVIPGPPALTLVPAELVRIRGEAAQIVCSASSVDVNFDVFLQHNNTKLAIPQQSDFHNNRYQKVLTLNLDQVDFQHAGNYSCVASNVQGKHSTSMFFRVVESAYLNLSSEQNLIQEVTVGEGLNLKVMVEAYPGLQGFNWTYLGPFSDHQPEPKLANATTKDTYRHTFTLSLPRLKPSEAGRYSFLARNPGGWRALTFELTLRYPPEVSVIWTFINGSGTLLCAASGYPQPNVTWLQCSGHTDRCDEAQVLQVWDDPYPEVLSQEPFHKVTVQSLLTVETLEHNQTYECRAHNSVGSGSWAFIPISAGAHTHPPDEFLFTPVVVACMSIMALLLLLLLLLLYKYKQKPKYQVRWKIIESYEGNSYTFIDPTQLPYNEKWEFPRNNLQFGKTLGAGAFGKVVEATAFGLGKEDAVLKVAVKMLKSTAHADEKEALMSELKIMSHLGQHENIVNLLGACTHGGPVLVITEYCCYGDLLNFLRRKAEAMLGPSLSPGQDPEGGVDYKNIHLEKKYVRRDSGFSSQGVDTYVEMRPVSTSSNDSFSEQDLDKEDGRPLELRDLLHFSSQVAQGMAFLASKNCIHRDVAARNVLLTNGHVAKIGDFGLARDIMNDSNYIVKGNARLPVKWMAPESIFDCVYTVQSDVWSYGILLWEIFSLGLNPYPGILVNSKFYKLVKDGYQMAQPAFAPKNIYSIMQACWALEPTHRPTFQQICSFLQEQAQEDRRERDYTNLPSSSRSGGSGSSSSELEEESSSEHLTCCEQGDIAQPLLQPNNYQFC
Sequence of Cytochrome P450 2C9 (P11712 whole entry): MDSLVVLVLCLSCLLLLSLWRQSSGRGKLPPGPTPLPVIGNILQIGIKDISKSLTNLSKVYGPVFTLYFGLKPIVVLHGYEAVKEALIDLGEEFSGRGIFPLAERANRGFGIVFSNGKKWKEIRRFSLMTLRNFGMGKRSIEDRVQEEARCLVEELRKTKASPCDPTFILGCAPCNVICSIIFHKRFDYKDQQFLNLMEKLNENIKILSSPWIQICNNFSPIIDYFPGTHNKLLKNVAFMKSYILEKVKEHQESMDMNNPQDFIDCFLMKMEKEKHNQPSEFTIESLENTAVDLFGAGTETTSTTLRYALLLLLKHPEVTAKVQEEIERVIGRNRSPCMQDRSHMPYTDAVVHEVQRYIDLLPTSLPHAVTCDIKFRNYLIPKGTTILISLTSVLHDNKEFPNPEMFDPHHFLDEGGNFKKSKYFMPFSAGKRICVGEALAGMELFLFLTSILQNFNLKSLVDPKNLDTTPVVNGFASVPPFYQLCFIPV
Sequence of Cytochrome P450 3A4 (P08684 whole entry): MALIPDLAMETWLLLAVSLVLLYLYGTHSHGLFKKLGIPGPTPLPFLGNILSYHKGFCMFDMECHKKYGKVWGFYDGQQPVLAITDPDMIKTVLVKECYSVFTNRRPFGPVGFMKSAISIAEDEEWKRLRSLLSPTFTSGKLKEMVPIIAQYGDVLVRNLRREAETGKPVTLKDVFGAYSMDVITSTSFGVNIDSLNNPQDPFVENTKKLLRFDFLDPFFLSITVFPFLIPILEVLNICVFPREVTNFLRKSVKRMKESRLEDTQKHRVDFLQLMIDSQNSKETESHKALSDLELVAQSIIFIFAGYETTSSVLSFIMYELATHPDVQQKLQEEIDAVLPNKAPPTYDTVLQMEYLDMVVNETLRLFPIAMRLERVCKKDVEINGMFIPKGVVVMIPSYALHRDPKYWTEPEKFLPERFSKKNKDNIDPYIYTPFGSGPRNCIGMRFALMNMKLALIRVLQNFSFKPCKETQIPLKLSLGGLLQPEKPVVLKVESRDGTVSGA
Sequence of Cytochrome P450 2C19 (P33261 whole entry): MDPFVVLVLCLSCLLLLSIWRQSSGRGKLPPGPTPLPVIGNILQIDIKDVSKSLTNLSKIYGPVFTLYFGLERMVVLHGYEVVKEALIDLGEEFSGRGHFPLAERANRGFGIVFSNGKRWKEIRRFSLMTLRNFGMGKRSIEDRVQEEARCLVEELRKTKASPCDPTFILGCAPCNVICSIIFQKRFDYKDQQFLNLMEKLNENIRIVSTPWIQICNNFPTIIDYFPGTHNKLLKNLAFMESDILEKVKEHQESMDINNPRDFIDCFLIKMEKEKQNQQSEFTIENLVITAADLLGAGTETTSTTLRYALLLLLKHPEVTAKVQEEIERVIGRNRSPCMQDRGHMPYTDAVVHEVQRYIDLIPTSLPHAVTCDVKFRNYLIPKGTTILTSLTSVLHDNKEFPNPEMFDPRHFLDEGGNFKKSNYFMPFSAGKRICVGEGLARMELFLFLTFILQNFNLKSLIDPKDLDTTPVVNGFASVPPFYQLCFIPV
Sequence of Platelet-derived growth factor receptor alpha (P16234 whole entry): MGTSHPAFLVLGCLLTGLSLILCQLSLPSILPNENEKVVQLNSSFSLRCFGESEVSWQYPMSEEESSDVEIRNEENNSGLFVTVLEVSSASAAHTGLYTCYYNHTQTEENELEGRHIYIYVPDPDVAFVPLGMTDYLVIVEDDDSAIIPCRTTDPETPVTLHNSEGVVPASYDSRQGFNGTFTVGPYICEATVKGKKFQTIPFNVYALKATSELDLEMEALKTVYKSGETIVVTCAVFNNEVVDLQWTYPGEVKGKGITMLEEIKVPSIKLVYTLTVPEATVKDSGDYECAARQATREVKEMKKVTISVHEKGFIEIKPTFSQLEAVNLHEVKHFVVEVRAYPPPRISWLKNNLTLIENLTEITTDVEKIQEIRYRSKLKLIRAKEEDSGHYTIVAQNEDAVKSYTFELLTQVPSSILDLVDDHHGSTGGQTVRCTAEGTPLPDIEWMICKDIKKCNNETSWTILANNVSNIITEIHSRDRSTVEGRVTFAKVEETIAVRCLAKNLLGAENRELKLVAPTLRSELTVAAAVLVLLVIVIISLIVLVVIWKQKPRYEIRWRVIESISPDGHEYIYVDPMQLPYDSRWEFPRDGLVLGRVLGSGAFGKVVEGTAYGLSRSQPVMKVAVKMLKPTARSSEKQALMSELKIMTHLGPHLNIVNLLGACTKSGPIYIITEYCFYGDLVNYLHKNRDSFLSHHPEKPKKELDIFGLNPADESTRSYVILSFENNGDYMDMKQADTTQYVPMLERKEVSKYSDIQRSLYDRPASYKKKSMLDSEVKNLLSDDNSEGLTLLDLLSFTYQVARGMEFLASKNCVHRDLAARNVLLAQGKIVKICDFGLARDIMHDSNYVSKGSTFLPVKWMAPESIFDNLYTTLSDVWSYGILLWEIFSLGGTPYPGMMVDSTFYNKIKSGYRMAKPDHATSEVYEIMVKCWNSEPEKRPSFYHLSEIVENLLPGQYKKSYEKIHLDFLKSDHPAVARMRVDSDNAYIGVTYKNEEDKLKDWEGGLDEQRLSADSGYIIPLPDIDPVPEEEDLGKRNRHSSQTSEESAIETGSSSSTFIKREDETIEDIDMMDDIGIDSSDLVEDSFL

For the molecule `CCN1C(C)(C)CC(Oc2ccc(C(=O)Nc3ccc(NC(=O)Nc4cc(C(C)(C)C)on4)cc3)nc2)CC1(C)C`, the Activity entry in data set [1] is on record as “Non-toxic”; in [5] it was “Non-toxic”; in data set [6] it was “Non-toxic”; in data set [7], “Non-toxic”; in data set [9] it was “Toxic”; in data set [10], “Not Active”. Further, the Activity entry in data set [11] and in data set [12] was “Not Active” throughout. In addition, the inhibition in vivo at 30 mg/kg in [2] came out at 79%. The inhibition in vivo at 10 mg/kg in [3] came out at 54%. Besides, the inhibition in vivo at 3 mg/kg in data set [4] turned out to be 29%. The area under the curve (AUC) was determined as 56.4 µM·h in data set [8] and 10 µM·h in [25]. The IC50 in data set [13] is greater than 40000 nM; in data set [14], greater than 40000 nM; in data set [15] it was greater than 40000 nM; in data set [16], greater than 40000 nM; in data set [18] it was 7.7 nM; in [21] it was 1.2 nM. Besides, the results for the IC50 in data set [22] and in data set [23] were 2 nM and 10.5 nM, respectively. Further, the Kd in [17] was 1 nM; in data set [19] it was 1.3 nM; in data set [20], 1 nM; in data set [27], 1.57 nM; in data set [28], 0.5 nM. The same molecule came in with a bioavailability in data set [24] of 44%. The molecule further returned a clearance in [26] of 14 mL/min/kg.
`CC(C)(C)c1cc(NC(=O)Nc2ccc(NC(=O)c3ccc(OC4CCNCC4)cn3)cc2)no1` returned a F in data set [29] of 1%. In [30], this molecule came in with an AUC of 1.6 µM·h.
